{"source": "patent US20250195602A1", "about": "“Compositions and Methods for Treating Neuropathy” (Creative Bio-Peptides, Inc., priority 2021, published 2025)", "key": {"[1]": {"assay": "Clinical observations and body weights over seven days after RAP-103 dosing (acute toxicity)", "format": "in vivo, Rhesus macaques; Macaca mulatta"}, "[2]": {"assay": "Pharmacokinetics of RAP-103 in non-human primates (plasma levels, bioavailability)", "format": "in vivo, Rhesus macaques; Macaca mulatta", "conditions": "for bioavailability: rhesus monkey, in vivo", "description": "In non-human primates (rhesus monkeys) RAP-103 was dosed once on Day 1 by intravenous bolus injection at 1 mg/kg and plasma levels determined. […] Drug in plasma after a single IV dose (1 mg/Kg) was still measurable at anticipated therapeutic levels 96 hrs. post-dose in non-human primates as shown in FIG. 2B."}, "[3]": {"assay": "Pharmacokinetics and brain entry of RAP-103 in guinea pigs (oral gavage and IV)", "format": "in vivo"}, "[4]": {"test_system": "chemotherapy induced peripheral neuropathy (CIPN) caused by paclitaxel", "description": "Morphine was used as a positive control for pain response.\nThe ability of RAP-103 was tested to treat chemotherapy induced peripheral neuropathy (CIPN) caused by paclitaxel in rodents. This assay uses the chemotherapeutic agent paclitaxel to elicit a chronic pain state. Once established, pain in these animals can persist for weeks.\nRats were given i.p. injections of paclitaxel (2 mg/kg) on days 0, 2, 4, and 6 to induce a chronic pain state. […] On day 21 morphine (2 mg/Kg) was also administered to animals as a positive control. Pain was assessed 60 minutes after morphine or RAP-103 administration on the left rear paw on day 21 with a series of von Frey filaments with logarithmically incrementing stiffness applied perpendicular to the midplantar region of the hind paw. The paw withdrawal force (grams, g) threshold was determined."}, "[5]": {"assay": "Pharmacokinetics and brain entry of RAP-103 in rats (oral gavage and IV)", "format": "in vivo"}, "[6]": {"conditions": "IV or oral gavage dosing, FIG. 2A"}}, "note": "Where two headings read alike, the source gives them in different places."}
{"molecule": "C[C@H](O)[C@@H](N)C(=O)N[C@@H](C(=O)N[C@H](CC(N)=O)C(=O)N[C@H](Cc1ccc(O)cc1)C(=O)N[C@@H](C(=O)O)[C@H](C)O)[C@H](C)O", "note": "[RAP-103, All D-peptide-Thr-Thr-Asn-Tyr-Thr]", "values": [{"measurement": "Acute toxicity", "setting": "[1]", "result": "no acute toxicity"}, {"measurement": "RAP-103-related changes in body weights", "setting": "[1]", "result": "no RAP-103-related changes"}, {"measurement": "RAP-103-related changes in clinical observations", "setting": "[1]", "result": "no RAP-103-related changes"}, {"measurement": "Brain entry", "setting": "[2]; non-human primates (Rhesus macaque), oral and IV dosing", "result": "quickly entered the brain"}, {"measurement": "Time post-dose at which drug in plasma was still measurable at anticipated therapeutic levels", "setting": "[2]; non-human primates, single IV dose 1 mg/Kg, FIG. 2B", "result": "≥ 96", "unit": "h"}, {"measurement": "bioavailability", "setting": "[2]; 1 mg/kg, female rhesus monkeys, 1 mg/kg dose level, read-out: Absolute bioavailability", "result": 88, "unit": "%"}, {"measurement": "bioavailability", "setting": "[2]; po, 1 mg/kg, male rhesus monkeys, 1 mg/kg dose level, read-out: Absolute bioavailability", "result": 89, "unit": "%"}, {"measurement": "bioavailability", "setting": "[2]; po, 1 mg/kg, non-human primates, read-out: Oral bioavailability", "result": 88, "unit": "%"}, {"measurement": "AUC 0-T, male versus female monkeys", "setting": "[2]; rhesus monkeys, 1 mg/kg", "result": "comparable"}, {"measurement": "Cmax, male versus female monkeys", "setting": "[2]; rhesus monkeys, 1 mg/kg", "result": "comparable"}, {"measurement": "Brain level compared to plasma levels", "setting": "[3]", "result": "preferentially enters the brain"}, {"measurement": "Brain entry by oral compared to IV dosing", "setting": "[3]; FIG. 2A", "result": "preferentially entered the brain by oral"}, {"measurement": "Brain entry", "setting": "[3]; [6]", "result": "quickly entered the brain"}, {"measurement": "Persistence at therapeutic levels in brain", "setting": "[3]; [6]", "result": "at least 24 hrs"}, {"measurement": "Treatment of paclitaxel induced CIPN compared with standard of care (morphine)", "setting": "[4]; animal model of CIPN, RAP-103 0.05 mg/kg vs morphine 2 mg/Kg", "result": "at least equivalent"}, {"measurement": "Dose lower on a weight basis than morphine at at least equivalent effect", "setting": "[4]; animal model of paclitaxel induced CIPN", "result": "about 40 fold"}, {"measurement": "Paw withdraw threshold compared to vehicle", "setting": "[4]; rats treated with paclitaxel, FIG. 4", "result": "increased paw withdraw threshold"}, {"measurement": "Effect on chronic pain caused by repeated administration of paclitaxel", "setting": "[4]; rats, 0.05 mg/kg daily i.p. days 17-21 post paclitaxel, assessed 60 minutes after dosing on day 21, FIG. 4", "result": "reduced chronic pain"}, {"measurement": "Brain level compared to plasma levels", "setting": "[5]", "result": "preferentially enters the brain"}, {"measurement": "Brain entry by oral compared to IV dosing", "setting": "[5]; FIG. 2A", "result": "preferentially entered the brain by oral"}, {"measurement": "Brain entry", "setting": "[5]; [6]", "result": "quickly entered the brain"}, {"measurement": "Persistence at therapeutic levels in brain", "setting": "[5]; [6]", "result": "at least 24 hrs"}]}
